Assay results: PubChem BioAssay AID179 (DTP/NCI, 2004)
Active and inactive are the calls of the source.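 How the source made its calls: active means compounds giving half or more protection of infected cells from virus-caused growth loss, again on retest; inactive means the rest.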

Test system: CEM cells HIV-1 protection, formazan growth assay
Assay: NCI AIDS Antiviral Assay
Conditions: for IC50: measured here: growth of uninfected CEM cells
Procedure, shortened: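 CEM (human) cells, HIV-1 infected vs uninfected, 5-point dosing, formazan growth read-out. Retest threshold 50% protection.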

Structure (SMILES) | EC50 | IC50 | outcome
Cc1c(C(=O)CC(=O)C(=O)Nc2ccc(Cl)cc2)[n+](=O)c2ccccc2n1[O-] | > 12.6 µM | > 12.6 µM | 
C[C@@]1(CO)OC(=O)N2CCC[C@H]21 | > 1450 µM | > 1450 µM | 
Cc1ccc(S(=O)(=O)CC2CCCn3c2c(C#N)c2ccccc23)cc1 (stereo unspecified) | > 200 µM | > 200 µM | 
CN1C(=O)CCC2(c3ccccc3)CC=C(O)C=C12 (stereo unspecified) | > 200 µM | > 200 µM | 
CCNc1nnc(CSc2nc(-c3ccccc3)c(-c3ccccc3)[nH]2)s1 | > 25.1 µM | 12.9 µM | 
O=C(C(=Cc1ccc(F)cc1)C(=O)c1ccccc1)c1ccccc1 | > 110 µM | > 100 µM | 
C=CCC(C(=O)NC(N)=O)c1ccccc1 (stereo unspecified) | > 832 µM | 617 µM | 
COc1c(O)c2c(=O)cc(OC)c3c4c(OC)cc(=O)c5c(O)c(OC)c6c(c(c1C(C(C)O)C6C(C)O)c23)c54 (stereo unspecified) | > 2 µM | 0.339 µM | 
CCCC(C(=O)Nc1cccc2[nH]cnc12)C(=O)OCC (stereo unspecified) | > 200 µM | 158 µM | 
O=C(N/C(=C/c1ccc(Cl)cc1)c1nc2ccccc2c(=O)n1Nc1ccc([N+](=O)[O-])cc1[N+](=O)[O-])c1ccccc1 | > 200 µM | 178 µM | 
CC(=O)OCC1Cn2c(c(-c3ccccc3)c(=O)[nH]c2=S)O1 (stereo unspecified) | > 603 µM | > 603 µM | 
CC1C/C(=C\c2ccc(O)c(O)c2)C(=O)/C(=C/c2ccc(O)c(O)c2)C1 (stereo unspecified) | > 200 µM | 10 µM | 
Cc1ccc(C(=O)Nc2ccc(S(=O)(=O)O)c3cc(S(=O)(=O)O)cc(S(=O)(=O)O)c23)cc1NC(=O)c1cccc(N)c1 | > 200 µM | > 200 µM | 
[CH3][Sn]([CH3])([CH3])[O]C(=O)C(O)c1ccccc1 (stereo unspecified) |  |  | inactive
COC(=O)NC1C(C)OC(OC2C/C=C(/C)C3C=CC4C(OC5CC(OC6CCC(OC7CC(O)C(OC8CCC(O)C(C)O8)C(C)O7)C(C)O6)C(OC(C)=O)C(C)O5)C(C)CC(C)C4C3(C)/C(O)=C3/C(=O)OC4(CC(C=O)=CC(O)C4/C=C\2C)C3=O)CC1(C)[N+](=O)[O-] (stereo unspecified) | > 186 µM | 0.191 µM | 
O=C(NCCCN1CC2CCCC2C1)C(C1CCCCC1)C1CCCCC1 (stereo unspecified) | > 200 µM | 11.5 µM | 
Cc1c(-c2nnc(-c3ccccc3)o2)c(=O)n(-c2ccccc2)n1C | > 200 µM | > 200 µM | 
CCn1c2ccccc2n2c(=O)c3c(c(C#N)c12)CCCC3 | > 200 µM | > 200 µM | 
CCOC(=O)C(C)c1c(C(=O)c2ccc(C)nc2)c2ccccc2n1C (stereo unspecified) |  |  | inactive
COc1cc(/C=C2\C(=O)N(C(=O)Cc3ccccc3)N=C2C)cc(OC)c1OC | > 25.1 µM | > 25.1 µM | 
Cc1ccc(N=Nc2c(N)nn3cc4c(nc23)CCCCC4)cc1 | > 200 µM | > 200 µM | 
O=C(CCC(=O)Nc1ccc(Cl)c(Cl)c1)CC(=O)c1ccc(Cl)cc1 |  |  | inactive
Nc1c(C(=O)Nc2ccc(C3=NCCN3)cc2)cccc1C(=O)Nc1ccc(C2=NCCN2)cc1 | > 110 µM | 67.6 µM | 
CC(=O)[O-].CC(=O)[O-].[Mn+2].c1ccc(/C(=N\Nc2ccccn2)c2ccccn2)cc1 |  |  | inactive
C[C@@H]1S[C@H](c2c(F)cccc2F)n2c1nc1ccccc12 | 29.5 µM | 43.7 µM | 
